20 molecules from patent publication US10160762B2, “6-alkyl dihydropyrazolopyrimidinone compounds as PDE2 inhibitors” (Merck Sharp & Dohme Corp., priority 2015, dated 2018) can be followed below.

Molecules are shown by their SMILES. Read-outs that look alike come from different tables or passages of the source. Where only a bound is given, the exact number is not on record here.

One assay concerns the target T1, Rhesus PDE2A3 (Macaca mulatta, UniProt B3VTJ2).
T1 construct: made in house; host or cells: AD293 cells, transient transfection; supernatant of sonicated lysate
T1 sequence (B3VTJ2 1-941): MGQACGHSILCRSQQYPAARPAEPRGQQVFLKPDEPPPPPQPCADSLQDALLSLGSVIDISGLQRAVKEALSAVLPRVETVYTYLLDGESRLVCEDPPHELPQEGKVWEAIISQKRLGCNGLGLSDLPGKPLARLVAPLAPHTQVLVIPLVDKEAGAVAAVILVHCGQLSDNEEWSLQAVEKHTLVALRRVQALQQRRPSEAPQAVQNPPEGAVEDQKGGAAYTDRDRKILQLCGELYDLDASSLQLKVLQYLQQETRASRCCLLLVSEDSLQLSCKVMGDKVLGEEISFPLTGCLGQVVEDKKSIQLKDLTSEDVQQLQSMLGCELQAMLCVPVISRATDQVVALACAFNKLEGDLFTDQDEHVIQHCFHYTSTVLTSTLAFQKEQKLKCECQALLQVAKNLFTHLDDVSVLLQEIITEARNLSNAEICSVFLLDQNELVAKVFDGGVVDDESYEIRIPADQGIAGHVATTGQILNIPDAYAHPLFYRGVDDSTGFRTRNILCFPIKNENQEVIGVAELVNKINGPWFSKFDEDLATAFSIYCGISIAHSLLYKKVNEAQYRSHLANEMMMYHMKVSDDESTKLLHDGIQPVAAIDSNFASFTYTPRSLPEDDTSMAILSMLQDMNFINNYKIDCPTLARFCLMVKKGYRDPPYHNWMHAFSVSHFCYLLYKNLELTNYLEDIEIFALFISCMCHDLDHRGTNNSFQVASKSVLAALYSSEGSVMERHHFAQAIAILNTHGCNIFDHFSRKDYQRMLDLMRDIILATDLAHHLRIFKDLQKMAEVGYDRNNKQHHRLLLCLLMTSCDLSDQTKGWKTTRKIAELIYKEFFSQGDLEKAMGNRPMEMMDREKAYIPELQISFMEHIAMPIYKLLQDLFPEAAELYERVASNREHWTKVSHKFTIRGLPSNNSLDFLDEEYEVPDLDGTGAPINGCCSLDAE
Put plainly: PDE2 fluorescence polarization (IMAP FP) inhibition assay, rhesus PDE2A3. It counts as biochemical, rhesus macaque. Here is the method:
The activity of the compounds in accordance with the present invention as PDE2 inhibitors may be readily determined using a fluorescence polarization (FP) methodology (Huang, W., et al., J. Biomol Screen, 2002, 7: 215).
The PDE2 inhibitory activity of the compounds of the present invention was determined in accordance with the following experimental method. Rhesus PDE2A3 was amplified from rhesus macaque brain cDNA (Biochain Institute, Hayward, Calif.) using primers based on human PDE2A sequence (accession NM_002599.3) where the forward primer containing a Kozak consensus was 5′-[…]-3′ and the reverse primer was 5′-[…]-3′. Amplification with Easy-A High-Fidelity PCR cloning enzyme (Stratagene, La Jolla, Calif.) was 95° C. for 2 minutes followed by thirty three cycles of 95° C. for 40 seconds, 52° C. for 30 seconds, and 72° C. for 2 minutes 48 seconds. Final extension was 72° C. for 7 minutes. The PCR product was TA cloned into pcDNA3.3-TOPO (Invitrogen, Carlsbad, Calif.) according to standard protocol. A consensus sequence was developed from multiple clones and then deposited into GenBank (EU812167). AD293 cells (Stratagene, La Jolla, Calif.) with 70-80% confluency were transiently transfected with rhesus PDE2A3/pcDNA3.3-TOPO using Lipofectamine 2000 according to manufacturer specifications (Invitrogen, Carlsbad, Calif.). Cells were harvested 48 hours post-transfection and lysed by sonication (setting 3, 10×5 sec pulses) in a buffer containing 20 mM HEPES pH 7.4, 1 mM EDTA and Complete Protease Inhibitor Cocktail Tablets (Roche, Indianapolis, Ind.). Lysate was collected by centrifugation at 75,000×g for 20 minutes at 4° C. and supernatant utilized for evaluation of PDE2 activity. The fluorescence polarization assay for cyclic nucleotide phosphodiesterases was performed using an IMAP® FP kit supplied by Molecular Devices, Sunnyvale, Calif. (product #R8139). […] Assays were performed at room temperature in 384-well microtiter plates with an incubation volume of 20.2 μL. Solutions of test compounds were prepared in DMSO and serially diluted with DMSO to yield 8 μL of each of 10 solutions differing by 3-fold in concentration, at 32 serial dilutions per plate. […] 0% of inhibition is determined by using DMSO (1% final concentrations).
A Labcyte Echo 555 (Labcyte, Sunnyvale, Calif.) is used to dispense 200 nL from each well of the titration plate to the 384 well assay plate. Ten microliters of a solution of enzyme (1/2000 final dilution from aliquots; sufficient to produce 20% substrate conversion) was added to the assay plate. Next 10 uL of a separate solution of the substrate FAM-labeled cAMP (50 nM final concentration product # R7506 from Molecular Devices) and the activator cGMP (1 uM final concentration), prepared in the assay buffer (10 mM Tris HCl, pH 7.2, 10 mM MgCl2, 0.05% NaN3 0.01% Tween-20, and 1 mM DTT) was added to the assay plate and shaken to mix. The reaction is allowed to proceed at room temperature for 60 minutes. A binding solution is then made from the kit components, comprised of 80% Solution A, 20% Solution B and binding reagent at a volume of 1/600 the total binding solution. The enzymatic reaction is stopped by addition of 60 μL of the binding solution to each well of the assay plates and the plates are sealed and shaken for 30 seconds. The plate was incubated at room temperature for at least one hour prior to determining the fluorescence polarization (FP). The parallel and perpendicular fluorescence of each well of the plate was measured using a Tecan Genios Pro plate reader (Tecan, Switzerland) or Perkin Elmer EnVision™ plate reader (Waltham, Mass.). Fluorescence polarization (mP) was calculated from the parallel (S) and perpendicular (P) fluorescence of each sample well and the analogous values for the median control well, containing only substrate (So and Po), using the following equation: Polarization(mP)=1000*(S/So−P/Po)/(S/So+P/Po).
For orientation: Polarisation of emitted light reports the rotation of a fluorescent probe.

Another assay addresses T2, human PDE2A1 (Homo sapiens, UniProt O00408).
T2 construct: GST; purchased BPS Bioscience (San Diego, Calif.) 60020; host or cells: insect cells
Put plainly: IMAP FP PDE assay, human PDE2A1. The format is biochemical. As to conditions: Lab B; read-out: Human PDE2 Ki (nM) Lab B. In short, it runs like this:
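GST-tagged human PDE2A1 from insect cells; substrate 50 nM FAM-cAMP containing 1000 nM cGMP in Tris pH 7.2/MgCl2/DTT buffer, enzyme giving 20% conversion. 60 min at room temperature, IMAP binding reagent, fluorescence polarization read. Apparent Ki from FP readings using apparent KM 10,000 nM; ten-point 3-fold titrations.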

Setting [1] is: Lab B, read-out: Rhesus PDE2 Ki (nM) Lab B.
[2] abbreviates: Lab A, read-out: Rhesus PDE2 Ki (nM) Lab A.

T2 sequence (O00408 1-920 isoform O00408-2): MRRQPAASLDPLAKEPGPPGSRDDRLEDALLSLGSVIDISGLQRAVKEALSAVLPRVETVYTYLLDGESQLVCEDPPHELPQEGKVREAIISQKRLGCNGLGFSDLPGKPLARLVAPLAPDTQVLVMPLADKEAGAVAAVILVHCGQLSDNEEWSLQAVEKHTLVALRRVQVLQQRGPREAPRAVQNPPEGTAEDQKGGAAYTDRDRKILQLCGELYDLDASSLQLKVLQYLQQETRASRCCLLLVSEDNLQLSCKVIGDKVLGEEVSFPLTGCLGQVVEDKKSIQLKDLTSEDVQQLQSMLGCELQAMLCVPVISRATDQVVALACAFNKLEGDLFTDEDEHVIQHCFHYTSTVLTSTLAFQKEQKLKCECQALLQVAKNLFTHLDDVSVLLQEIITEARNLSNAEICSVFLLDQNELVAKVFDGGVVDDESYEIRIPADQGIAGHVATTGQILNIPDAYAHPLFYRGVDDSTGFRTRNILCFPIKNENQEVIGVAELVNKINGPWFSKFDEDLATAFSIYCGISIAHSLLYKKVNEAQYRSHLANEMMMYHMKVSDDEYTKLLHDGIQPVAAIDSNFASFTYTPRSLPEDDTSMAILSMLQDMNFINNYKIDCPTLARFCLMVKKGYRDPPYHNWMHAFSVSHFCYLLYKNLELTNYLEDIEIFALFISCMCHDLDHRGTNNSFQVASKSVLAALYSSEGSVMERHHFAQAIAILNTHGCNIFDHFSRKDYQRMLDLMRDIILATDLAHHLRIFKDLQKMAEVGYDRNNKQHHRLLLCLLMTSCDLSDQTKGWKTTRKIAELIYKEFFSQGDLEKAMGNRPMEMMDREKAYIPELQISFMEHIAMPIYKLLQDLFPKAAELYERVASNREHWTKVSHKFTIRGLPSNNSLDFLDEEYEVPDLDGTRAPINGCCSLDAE

For orientation: Ki means the dissociation constant of the complex between target and ligand, obtained from inhibition or displacement. Take `COCc1nn(C(C)c2ccc(C(F)(F)F)cc2)c2nc(C)[nH]c(=O)c12` (single isomer, unassigned) [Example 278]: at Rhesus PDE2A3 (setting [1]), the Ki was 768 nM.
Consider `Cc1nc2c(c(C(F)F)nn2C(C)c2ccc(C(F)(F)F)cc2)c(=O)[nH]1` (single isomer, unassigned) [Example 175], for which the Ki on Rhesus PDE2A3 (setting [1]) was found to be 419 nM.
The same measure, in the same setting: the value for `CC(c1ccc(C(F)(F)F)cc1)n1nc(COCc2ccccc2)c2c(=O)[nH]c(C(F)F)nc21` (stereo not drawn) [Example 283, 3-((Benzyloxy)methyl)-6-(difluoromethyl)-1-(1-(4-(trifluoromethyl)phenyl)ethyl)-1H-pyrazolo[3,4-d]pyrimidin-4(5H)-one] was 387 nM.
Consider `Cc1nc2c(c(CS(C)(=O)=O)nn2C(C)c2ccc(C(F)(F)F)cc2)c(=O)[nH]1` (single isomer, unassigned) [Example 273], for which the Ki at Rhesus PDE2A3 (setting [1]) turned out to be 757 nM.
With `Cc1nc2c(c(C)nn2C(C)C(=O)Nc2ccc(C(F)(F)F)cc2)c(=O)[nH]1` (stereo not drawn) [Example 334, 2-(3,6-Dimethyl-4-oxo-4,5-dihydropyrazolo[3,4-d]pyrimidin-1-yl)-N-(4-(trifluoromethyl)phenyl)propanamide], the Ki at Rhesus PDE2A3 (setting [2]) is more than 1000 nM.
Turning to `Cc1nc2c(c(CF)nn2C(c2ccc(C(F)(F)F)cc2)C2(C)CC2)c(=O)[nH]1` (single isomer, unassigned) [Example 208, (R)- or (S)-3-(Fluoromethyl)-6-methyl-1-((1-methylcyclopropyl)(4-(trifluoromethyl)phenyl)methyl)-1H-pyrazolo[3,4-d]pyrimidin-4(5H)-one], the Ki on Rhesus PDE2A3 (setting [1]) is 149 nM.
Still for that read-out and setting: as for `Cc1nc2c(c(C)nn2C(C)CNc2ccc(C(F)(F)F)cc2)c(=O)[nH]1` (stereo not drawn) [Example 330, 3,6-Dimethyl-1-(1-(4-(trifluoromethyl)phenylamino)propan-2-yl)-1H-pyrazolo[3,4-d]pyrimidin-4(5H)-one], the figure is 2410 nM; as for `CC(c1ccc(C(F)(F)F)cc1)n1nc(CO)c2c(=O)[nH]c(-c3ccco3)nc21` (racemic) [Example 294, 6-Furan-2-yl-3-(hydroxymethyl)-1-{1-[4-(trifluoromethyl)phenyl]ethyl}-1,5-dihydro-4H-pyrazolo[3,4-d]pyrimidin-4-one], approximately 2590 nM.
`Cc1nc2c(c(C)nn2CC(=O)Nc2ccc(C(F)(F)F)cc2)c(=O)[nH]1` [Example 337, 2-(3,6-Dimethyl-4-oxo-4,5-dihydro-1H-pyrazolo[3,4-d]pyrimidin-1-yl)-N-(4-(trifluoromethyl)phenyl)acetamide]: on Rhesus PDE2A3 (setting [2]), the Ki was more than 1000 nM.
With `Cc1nc2c(c(CF)nn2C(C)c2ccc(S(F)(F)(F)(F)F)cc2)c(=O)[nH]1` (single isomer, unassigned) [Example 199], the inhibition constant Ki at Rhesus PDE2A3 (setting [1]) turned out to be 210 nM.
For the molecule `Cc1nn(C(C)c2ccc(C(F)(F)F)cc2)c2nc(CCC(=O)N(C)C)[nH]c(=O)c12` (stereo not drawn) [Example 32, N,N-Dimethyl-3-(3-methyl-4-oxo-1-(1-(4-(trifluoromethyl)phenyl)ethyl)-4,5-dihydro-1H-pyrazolo[3,4-d]pyrimidin-6-yl)propanamide], the Ki at Rhesus PDE2A3 (setting [2]) is 275 nM; at Rhesus PDE2A3 (setting [1]), 416 nM.
As to `Cc1nn(C(C)c2ccc(C(F)(F)F)cc2)c2nc(C(C)O)[nH]c(=O)c12` (stereo not drawn) [Example 29, 6-(1-Hydroxyethyl)-3-methyl-1-(1-(4-(trifluoromethyl)phenyl)ethyl)-1H-pyrazolo[3,4-d]pyrimidin-4(5H)-one], on Rhesus PDE2A3 (setting [2]), the Ki amounted to 583 nM.
On the same count and under the same terms, the value for `Cc1nc2c(c(C)nn2CC(O)c2ccc(C(F)(F)F)cc2)c(=O)[nH]1` (stereo not drawn) [Example 335, 1-(2-Hydroxy-2-(4-(trifluoromethyl)phenyl)ethyl)-3,6-dimethyl-1H-pyrazolo[3,4-d]pyrimidin-4(5H)-one] was more than 1000 nM.
Take `Cc1nc2c(c(CO)nn2C(C)c2ncn(CC(F)(F)F)n2)c(=O)[nH]1` (single isomer, unassigned) [Example 148]: the inhibition constant (Ki) at human PDE2A1 was determined as 671 nM.
Still for that read-out and setting: as for `Cc1nc2c(c(C(F)(F)F)nn2C(C)c2ccc(C(F)(F)F)cc2)c(=O)[nH]1` (single isomer, unassigned) [Example 69, (S)- or-(R)-6-Methyl-3-(trifluoromethyl)-1-(1-(4-(trifluoromethyl)phenyl)ethyl)-1H-pyrazolo[3,4-d]pyrimidin-4(5H)-one], the figure is 713 nM.
In the case of `Cc1nc2c(c(CC(C)O)nn2C(C)c2ccc(C(F)(F)F)cc2)c(=O)[nH]1` (single isomer, unassigned) [Example 243], the Ki on human PDE2A1 was 808 nM.
Same read-out and setting: as for `Cc1nc2c(c(CC(F)(F)F)nn2C(c2ccc(C(F)(F)F)c(F)c2)C(C)(C)C)c(=O)[nH]1` (single isomer, unassigned) [Example 60, (R)- or (S)-1-(1-(3-Fluoro-4-(trifluoromethyl)phenyl)-2,2-dimethylpropyl)-6-methyl-3-(2,2,2-trifluoroethyl)-1H-pyrazolo[3,4-d]pyrimidin-4(5H)-one], the figure is more than 2960 nM; as for `Cc1nc2c(c(O)nn2[C@@H](C)c2ccc(C(F)(F)F)cc2)c(=O)[nH]1` [Example 329, (S)-3-Hydroxy-6-methyl-1-(1-(4-(trifluoromethyl)phenyl)ethyl)-1,5-dihydro-4H-pyrazolo[3,4-d]pyrimidin-4-one], 2080 nM.
The same measure, in the same setting: the value for `CC(c1ccc(C(F)(F)F)cc1)n1nc(C#N)c2c(=O)[nH]c(CC3CCCC3)nc21` (single isomer, unassigned) [Example 351] was 1010 nM.
As for `Cc1nc2c(c(C(=O)NCC(F)(F)F)nn2C(C)c2ccc(C(F)(F)F)cc2)c(=O)[nH]1` (single isomer, unassigned) [Example 268, (R)- or (S)-6-Methyl-4-oxo-N-(2,2,2-trifluoroethyl)-1-(1-(4-(trifluoromethyl)phenyl)ethyl)-4,5-dihydro-1H-pyrazolo[3,4-d]pyrimidine-3-carboxamide], on human PDE2A1, the Ki was determined as 311 nM.
